Assay results: patent publication US10759813B2, “Neprilysin inhibitors” (THERAVANCE BIOPHARMA R&D IP, LLC, priority 2010, dated 2020)

biological target: human neprilysin (EC 3.4.24.11; NEP) (Homo sapiens (Human), UniProt P08473); test: In vitro enzyme inhibition assay at human NEP (fluorogenic peptide substrate); assay type: biochemical; conditions: pKi values at human NEP, recombinant human NEP
Method in brief: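 Recombinant human NEP preincubated 30 min at 37 °C with compound (10 μM down to pM), then 10 μM Mca-D-Arg-Arg-Leu-Dap-(Dnp)-OH in 50 mM HEPES pH 7.5, 100 mM NaCl, 0.01% Tween-20, 10 μM ZnSO4. Stopped after 20 min with acetic acid; fluorescence Ex320/Em405; Ki by nonlinear fit, reported as pKi.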

Sequence of human neprilysin (EC 3.4.24.11; NEP) (P08473 52-750): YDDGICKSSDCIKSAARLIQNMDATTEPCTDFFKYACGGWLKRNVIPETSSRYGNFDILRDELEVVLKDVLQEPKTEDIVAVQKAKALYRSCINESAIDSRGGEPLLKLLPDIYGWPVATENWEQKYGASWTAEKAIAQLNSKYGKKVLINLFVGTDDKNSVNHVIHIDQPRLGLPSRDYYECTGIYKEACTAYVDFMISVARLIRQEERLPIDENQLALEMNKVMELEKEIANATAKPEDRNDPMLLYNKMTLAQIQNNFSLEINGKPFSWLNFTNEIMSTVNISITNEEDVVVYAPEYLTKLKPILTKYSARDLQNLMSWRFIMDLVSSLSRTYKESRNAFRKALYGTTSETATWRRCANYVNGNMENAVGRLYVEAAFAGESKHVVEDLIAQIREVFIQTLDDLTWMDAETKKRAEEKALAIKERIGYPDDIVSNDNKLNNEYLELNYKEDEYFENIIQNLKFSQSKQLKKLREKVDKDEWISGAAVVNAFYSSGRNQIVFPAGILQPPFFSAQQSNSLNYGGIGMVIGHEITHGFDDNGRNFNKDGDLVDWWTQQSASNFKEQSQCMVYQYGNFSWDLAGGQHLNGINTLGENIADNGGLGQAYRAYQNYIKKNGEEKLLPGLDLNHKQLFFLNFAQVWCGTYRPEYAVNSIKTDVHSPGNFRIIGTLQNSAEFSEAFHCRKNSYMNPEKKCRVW

| Compound | pKi |
| --- | --- |
| CC(=O)c1cc(C(=O)N[C@H](Cc2ccc(-c3cccc(Cl)c3)cc2)C[C@@H](O)C(=O)O)on1 [Example 18-7, (2R,4R)-4-[(3-Acetyl-isoxazole-5-carbonyl)-amino]-5-(3′-chlorobiphenyl-4-yl)-2-hydroxy-pentanoic acid] | ≥9.0 |
| COc1cc(C(=O)N[C@H](Cc2ccc(-c3cccc(Cl)c3)cc2)C[C@@H](O)C(=O)O)on1 [Example 18-8, (2R,4R)-5-(3′-Chlorobiphenyl-4-yl)-2-hydroxy-4-[(3-methoxy-isoxazole-5-carbonyl)-amino]-pentanoic acid] | ≥9.0 |
| O=C(N[C@H](Cc1ccc(-c2cccc(Cl)c2)cc1)C[C@@H](O)C(=O)O)c1cc(Cl)no1 [Example 18-9, (2R,4R)-5-(3′-Chloro-biphenyl-4-yl)-4-[(3-chloro-isoxazole-5-carbonyl)-amino]-2-hydroxy-pentanoic acid] | ≥9.0 |
| CC(C)c1cc(C(=O)N[C@H](Cc2ccc(-c3cccc(Cl)c3)cc2)C[C@@H](O)C(=O)O)on1 [Example 18-10, (2R,4R)-5-(3′-Chloro-biphenyl-4-yl)-2-hydroxy-4-[(3-isopropyl-isoxazole-5-carbonyl)-amino]-pentanoic acid] | ≥9.0 |
| CCCc1cc(C(=O)N[C@H](Cc2ccc(-c3cccc(Cl)c3)cc2)C[C@@H](O)C(=O)O)on1 [Example 18-11, (2R,4R)-5-(3′-Chloro-biphenyl-4-yl)-2-hydroxy-4-[(3-propyl-isoxazole-5-carbonyl)-amino]-pentanoic acid] | ≥9.0 |
| CC(C)Cc1cc(C(=O)N[C@H](Cc2ccc(-c3cccc(Cl)c3)cc2)C[C@@H](O)C(=O)O)on1 [Example 18-12, (2R,4R)-5-(3′-Chloro-biphenyl-4-yl)-2-hydroxy-4-[(3-isobutyl-isoxazole-5-carbonyl)-amino]-pentanoic acid] | ≥9.0 |
| CC(C)(O)c1cc(C(=O)N[C@H](Cc2ccc(-c3cccc(Cl)c3)cc2)C[C@@H](O)C(=O)O)on1 [Example 18-13, (2R,4R)-5-(3′-Chloro-biphenyl-4-yl)-2-hydroxy-4-{[3-(1-hydroxy-1-methyl-ethyl)-isoxazole-5-carbonyl]-amino}-pentanoic acid] | ≥9.0 |
| CC(C)(C)c1cc(C(=O)N[C@H](Cc2ccc(-c3cccc(Cl)c3)cc2)C[C@@H](O)C(=O)O)on1 [Example 18-14, (2R,4R)-4-[(3-tert-Butyl-isoxazole-5-carbonyl)-amino]-5-(3′-chloro-biphenyl-4-yl)-2-hydroxy-pentanoic acid] | ≥9.0 |
| Cn1nc(C(=O)N[C@H](Cc2ccc(-c3cccc(Cl)c3)cc2)C[C@@H](O)C(=O)O)cc1O [Example 18-35, (2R,4R)-5-(3′-Chloro-biphenyl-4-yl)-2-hydroxy-4-[(5-hydroxy-1-methyl-1H-pyrazole-3-carbonyl)-amino]-pentanoic acid] | ≥9.0 |
| O=C(N[C@@H](Cc1ccc(-c2cccc(Cl)c2)cc1)C[C@@H](O)C(=O)O)c1cc(O)n(-c2cccc(Cl)c2)n1 [Example 18-39, (2R,4S)-5-(3′-Chloro-biphenyl-4-yl)-4-{[1-(3-chloro-phenyl)-5-hydroxy-1H-pyrazole-3-carbonyl]-amino}-2-hydroxy-pentanoic acid] | ≥9.0 |

The next lines start with the values.

| pKi | Compound |
| --- | --- |
| ≥9.0 | O=C(N[C@H](Cc1ccc(-c2cccc(Cl)c2)cc1)C[C@@H](O)C(=O)O)c1ccc2nnn(O)c2c1 [Example 18-3, (2R,4R)-5-(3′-Chlorobiphenyl-4-yl)-2-hydroxy-4-[(3-hydroxy-3H-benzotriazole-5-carbonyl)-amino]-pentanoic acid] |
| ≥9.0 | O=C(N[C@H](Cc1ccc(-c2cccc(Cl)c2)cc1)C[C@@H](O)C(=O)O)c1cc(-c2ccccc2Cl)on1 [Example 18-15, (2R,4R)-5-(3′-Chlorobiphenyl-4-yl)-4-{[5-(2-chlorophenyl)-isoxazole-3-carbonyl]-amino}-2-hydroxy-pentanoic acid] |
| ≥9.0 | O=C(N[C@H](Cc1ccc(-c2cccc(Cl)c2)cc1)C[C@@H](O)C(=O)O)c1cc(-c2ccccc2O)on1 [Example 18-16, (2R,4R)-5-(3′-Chlorobiphenyl-4-yl)-2-hydroxy-4-{[5-(2-hydroxyphenyl)-isoxazole-3-carbonyl]-amino}-pentanoic acid] |
| ≥9.0 | O=C(N[C@H](Cc1ccc(-c2cccc(Cl)c2)cc1)C[C@@H](O)C(=O)O)c1cc(-c2ccccc2O)n[nH]1 [Example 18-17, (2R,4R)-5-(3′-Chlorobiphenyl-4-yl)-2-hydroxy-4-{[5-(2-hydroxy-phenyl)-2H-pyrazole-3-carbonyl]-amino}-pentanoic acid] |
| ≥9.0 | O=C(N[C@H](Cc1ccc(-c2cccc(Cl)c2)cc1)C[C@@H](O)C(=O)O)c1cc(-c2cnccn2)n[nH]1 [Example 18-19, (2R,4R)-5-(3′-Chlorobiphenyl-4-yl)-2-hydroxy-4-[(5-pyrazin-2-yl-2H-pyrazole-3-carbonyl)-amino]-pentanoic acid] |
| ≥9.0 | O=C(N[C@H](Cc1ccc(-c2cccc(Cl)c2)cc1)C[C@@H](O)C(=O)O)c1cc(-c2ccccn2)n[nH]1 [Example 18-23, (2R,4R)-5-(3′-Chlorobiphenyl-4-yl)-2-hydroxy-4-[(5-pyridin-2-yl-2H-pyrazole-3-carbonyl)-amino]-pentanoic acid] |
| ≥9.0 | O=C(N[C@H](Cc1ccc(-c2cccc(Cl)c2)cc1)C[C@@H](O)C(=O)O)c1cc(NC(=O)c2ccccc2Cl)n[nH]1 [Example 18-27, (2R,4R)-4-{[5-(2-Chlorobenzoylamino)-2H-pyrazole-3-carbonyl]-amino}-5-(3′-chlorobiphenyl-4-yl)-2-hydroxy-pentanoic acid] |
| ≥9.0 | COc1ccccc1C(=O)Nc1cc(C(=O)N[C@H](Cc2ccc(-c3cccc(Cl)c3)cc2)C[C@@H](O)C(=O)O)[nH]n1 [Example 18-31, (2R,4R)-5-(3′-Chloro-biphenyl-4-yl)-2-hydroxy-4-{[5-(2-methoxy-benzoylamino)-2H-pyrazole-3-carbonyl]-amino}-pentanoic acid] |
| ≥9.0 | CC(O)c1cc(C(=O)N[C@H](Cc2ccc(-c3cccc(Cl)c3)cc2)C[C@@H](O)C(=O)O)[nH]n1 (stereo partly drawn) [Example 18-32, (2R,4R)-5-(3′-Chloro-biphenyl-4-yl)-2-hydroxy-4-{[5-(1-hydroxy-ethyl)-2H-pyrazole-3-carbonyl]-amino}-pentanoic acid] |
| ≥9.0 | O=C(N[C@H](Cc1ccc(-c2cccc(Cl)c2)cc1)C[C@@H](O)C(=O)O)c1cc(-c2cccnc2)[nH]n1 [Example 18-34, (2R,4R)-5-(3′-Chlorobiphenyl-4-yl)-2-hydroxy-4-[(5-pyridin-3-yl-1H-pyrazole-3-carbonyl)-amino]-pentanoic acid] |
| ≥9.0 | O=C(N[C@H](Cc1ccc(-c2cccc(Cl)c2)cc1)C[C@@H](O)C(=O)O)c1cc(O)n(-c2ccccn2)n1 [Example 18-37, (2R,4R)-5-(3′-Chloro-biphenyl-4-yl)-2-hydroxy-4-[(5-hydroxy-1-pyridin-2-yl-1H-pyrazole-3-carbonyl)-amino]-pentanoic acid] |
| ≥9.0 | O=C(N[C@H](Cc1ccc(-c2cccc(Cl)c2)cc1)C[C@@H](O)C(=O)O)c1cc(O)n(-c2ccccc2F)n1 [Example 18-38, (2R,4R)-5-(3′-Chloro-biphenyl-4-yl)-4-{[1-(2-fluoro-phenyl)-5-hydroxy-1H-pyrazole-3-carbonyl]-amino}-2-hydroxy-pentanoic acid] |
